Reference: US7214669B2, “Tetracycline derivatives and methods of use thereof” (Tetragenex Pharmaceuticals, Inc., priority 2001, dated 2007)
Values joined by “and” are separate entries in the source; they are usually repeats but may differ in a detail not shown here. Identical values can stand only once. Each block holds one compound with its values, some of them ahead of it.

Columns and labels:
[1] = biological target: T1, Human recombinant MMP1 (Homo sapiens, UniProt P03956); assay: MMP1 (Collagenase-1) inhibition, 14C collagen release; format: biochemical; settings: 35° C., 5 hours; read-out: MMP-1 inhibitory activity, IC50
T1 sequence (P03956 100-469): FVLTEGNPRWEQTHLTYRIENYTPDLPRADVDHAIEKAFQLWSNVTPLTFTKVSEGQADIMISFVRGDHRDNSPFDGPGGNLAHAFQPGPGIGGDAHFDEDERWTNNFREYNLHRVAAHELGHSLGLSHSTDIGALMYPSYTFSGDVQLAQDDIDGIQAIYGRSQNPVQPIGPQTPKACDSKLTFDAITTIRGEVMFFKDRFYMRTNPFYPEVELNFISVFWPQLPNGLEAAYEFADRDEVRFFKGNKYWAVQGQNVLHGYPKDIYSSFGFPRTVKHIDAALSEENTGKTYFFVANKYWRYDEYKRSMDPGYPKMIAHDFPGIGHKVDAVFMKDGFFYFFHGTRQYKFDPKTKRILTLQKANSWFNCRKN

[2] = biological target: T2, MMP2 (Gelatinase A) (Homo sapiens, UniProt P08253); assay: MMP2 (Gelatinase A) inhibition, 14C gelatin release; format: biochemical; settings: 37° C., 16 hours; read-out: MMP-2 inhibitory activity, IC50
T2 sequence (P08253 110-660): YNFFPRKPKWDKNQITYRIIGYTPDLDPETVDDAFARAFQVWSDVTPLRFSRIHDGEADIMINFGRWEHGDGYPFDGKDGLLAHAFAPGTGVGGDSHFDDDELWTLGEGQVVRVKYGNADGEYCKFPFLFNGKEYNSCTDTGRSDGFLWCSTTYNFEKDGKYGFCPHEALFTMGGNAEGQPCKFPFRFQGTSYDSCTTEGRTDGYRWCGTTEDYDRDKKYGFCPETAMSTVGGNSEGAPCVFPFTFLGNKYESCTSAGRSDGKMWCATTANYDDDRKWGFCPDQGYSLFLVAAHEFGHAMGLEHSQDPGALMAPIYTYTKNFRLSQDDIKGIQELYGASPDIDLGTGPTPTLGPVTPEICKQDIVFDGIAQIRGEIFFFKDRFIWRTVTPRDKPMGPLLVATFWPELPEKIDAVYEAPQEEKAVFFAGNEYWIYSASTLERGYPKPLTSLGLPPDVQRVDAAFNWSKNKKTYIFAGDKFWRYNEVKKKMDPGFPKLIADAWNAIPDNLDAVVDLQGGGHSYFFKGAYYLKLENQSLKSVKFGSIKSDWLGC

[3] = biological target: Human recombinant MMP3 (Homo sapiens, UniProt P08254); assay: MMP3 (Stromelysin 1) inhibition, 14C casein release; format: biochemical; settings: 37° C., 16 hours; read-out: MMP-3 inhibitory activity, IC50
[4] = biological target: T3, Human recombinant MMP7 (Homo sapiens, UniProt P09237); assay: MMP7 (Matrilysin) inhibition, 14C casein release; format: biochemical; settings: 37° C., 16 hours; read-out: MMP-7 inhibitory activity, IC50
T3 sequence (P09237 95-267): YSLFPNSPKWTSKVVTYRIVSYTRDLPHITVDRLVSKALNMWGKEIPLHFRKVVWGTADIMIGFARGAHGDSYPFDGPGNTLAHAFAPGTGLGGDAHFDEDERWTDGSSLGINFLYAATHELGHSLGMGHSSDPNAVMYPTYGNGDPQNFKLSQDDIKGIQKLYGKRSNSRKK

[5] = biological target: Human recombinant MMP9 (Homo sapiens, UniProt P14780); assay: MMP9 (Gelatinase B) inhibition, 14C gelatin release; format: biochemical; settings: 37° C., 16 hours; read-out: MMP-9 inhibitory activity, IC50
[6] = biological target: Human recombinant MMP14 (Homo sapiens, UniProt P50281); assay: MMP14 (MTI-MMP) inhibition, 14C collagen release; format: biochemical; settings: 35° C., 15 hours; read-out: MMP-14 inhibitory activity, IC50
[7] = tested on: Ark human myeloma cancer cells; assay: Membrane Invasion Culture System (MICS) chemo-invasion assay; format: cell-based; settings: 24 hours, + = increased invasiveness
Outline: (§1)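 Fifty thousand cells were seeded above a 35 μm laminin/collagen IV/gelatin barrier on a 10 μm-pore filter, with serum-free RPMI plus 50% fibroblast-conditioned medium below as chemoattractant. Compound at 1, 10 or 25 μg/ml, or DMSO vehicle, was present for 24 h. Invaded cells were collected, Wright-stained and counted over 5 fields.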

[8] = tested on: C8161 human melanoma cells; assay: as above; format: cell-based; settings: 24 hours, + = increased invasiveness
Outline: as §1

[9] = tested on: MDA-MB-231 human breast cancer cells; assay: as above; format: cell-based; settings: 24 hours, + = increased invasiveness
Outline: as §1

[10] = tested on: PC-3 ML human prostate cancer cells; assay: as above; format: cell-based; settings: 24 hours, + = increased invasiveness
Outline: as §1

[11] = tested on: RPMI-8226 human myeloma cancer cells; assay: as above; format: cell-based; settings: 24 hours, + = increased invasiveness
Outline: as §1

Sequence of Human recombinant MMP3 (P08254 100-477): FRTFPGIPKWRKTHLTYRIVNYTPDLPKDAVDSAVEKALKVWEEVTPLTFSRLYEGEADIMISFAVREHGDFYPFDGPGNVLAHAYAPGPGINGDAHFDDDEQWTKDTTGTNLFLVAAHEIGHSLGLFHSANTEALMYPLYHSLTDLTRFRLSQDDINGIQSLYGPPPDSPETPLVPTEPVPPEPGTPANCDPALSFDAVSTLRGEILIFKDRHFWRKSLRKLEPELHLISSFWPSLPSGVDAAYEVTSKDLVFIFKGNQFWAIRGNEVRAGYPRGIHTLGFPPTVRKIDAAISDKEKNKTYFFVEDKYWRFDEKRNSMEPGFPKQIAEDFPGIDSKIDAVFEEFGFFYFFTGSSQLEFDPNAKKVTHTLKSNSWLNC
Sequence of Human recombinant MMP9 (P14780 94-707): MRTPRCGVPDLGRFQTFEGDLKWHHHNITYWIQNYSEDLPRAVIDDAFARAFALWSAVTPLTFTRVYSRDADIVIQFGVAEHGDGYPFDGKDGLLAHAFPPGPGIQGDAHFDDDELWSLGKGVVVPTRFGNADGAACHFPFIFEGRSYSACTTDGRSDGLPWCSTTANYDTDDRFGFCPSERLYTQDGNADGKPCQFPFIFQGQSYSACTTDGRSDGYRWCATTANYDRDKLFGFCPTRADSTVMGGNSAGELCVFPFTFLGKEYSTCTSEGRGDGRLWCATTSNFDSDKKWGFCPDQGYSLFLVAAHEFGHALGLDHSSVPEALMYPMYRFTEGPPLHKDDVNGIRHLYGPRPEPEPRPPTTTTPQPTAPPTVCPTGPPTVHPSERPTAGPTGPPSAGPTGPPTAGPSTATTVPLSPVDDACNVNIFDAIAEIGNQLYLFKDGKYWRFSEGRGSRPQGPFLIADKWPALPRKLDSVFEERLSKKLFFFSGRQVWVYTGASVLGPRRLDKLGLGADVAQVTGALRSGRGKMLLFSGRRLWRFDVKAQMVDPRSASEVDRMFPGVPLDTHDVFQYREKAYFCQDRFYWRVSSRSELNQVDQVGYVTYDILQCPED

IC50 [1]: > 1000 µM
IC50 [2]: 234 µM
IC50 [3]: 738 µM
IC50 [4]: 716 µM
IC50 [5]: 402 µM
IC50 [6]: 768 µM
SMILES: CC1c2c(N(C)C)ccc(O)c2C(=O)C2=C(O)C3(O)C(=O)C(C(N)=O)=C(O)C(N(C)C)C3C(O)C21 (stereo not drawn) [Compound 15, 7-Dimethylamino-6-deoxy-5-hydroxy-tetracycline H2SO4]

IC50 [1]: 452 µM
IC50 [2]: 215 µM
IC50 [3]: > 1000 µM
IC50 [4]: 569 µM
IC50 [5]: 215 µM
IC50 [6]: 715 µM
SMILES: CC(=O)Nc1ccc2c(c1O)C(=O)C1=C(O)C3(O)C(=O)C(C(N)=O)=C(O)C(N(C)C)C3C(O)C1C2C (stereo not drawn) [Compound 16, 9-Acetamido-6-deoxy-5-hydroxytetracycline H2SO4]

IC50 [1]: 427 µM
IC50 [2]: > 1000 µM
IC50 [3]: 270 µM
IC50 [4]: > 1000 µM
IC50 [5]: 96 µM
IC50 [6]: 46 µM
SMILES: CC1c2ccc([N+]#N)c(O)c2C(=O)C2=C(O)C3(O)C(=O)C(C(N)=O)=C(O)C(N(C)C)C3C(O)C21 (stereo not drawn) [Compound 11, 6-Deoxy-5-hydroxytetracycline-9-diazonium H2SO4]
percent inhibition, C8161 (Melanoma) ([8]; 1 ug/mL): 16%
percent inhibition, C8161 (Melanoma) ([8]; 10 ug/mL): 46^B percent
percent inhibition, C8161 (Melanoma) ([8]; 25 ug/mL): 41^B percent
percent inhibition, MDA-MB-231 (Breast) ([9]; 1 ug/mL): 6%
percent inhibition, MDA-MB-231 (Breast) ([9]; 10 ug/mL): 15%
percent inhibition, MDA-MB-231 (Breast) ([9]; 25 ug/mL): 36^B percent
percent inhibition, PC-3 ML (Prostrate) ([10]; 1 ug/mL): +3%
percent inhibition, PC-3 ML (Prostrate) ([10]; 10 ug/mL): 0%
percent inhibition, PC-3 ML (Prostrate) ([10]; 25 ug/mL): 36^B percent

The next lines start with the compound.

SMILES: CC1c2ccc(N=[N+]=[N-])c(O)c2C(=O)C2=C(O)C3(O)C(=O)C(C(N)=O)=C(O)C(N(C)C)C3C(O)C21 (stereo not drawn) [Compound 6, 9-Azido-6-deoxy-5-hydroxytetracycline H2SO4]
IC50 [1]: 394 µM
IC50 [2]: 135 µM
IC50 [3]: 241 µM
IC50 [4]: > 1000 µM and < 1000 µM
IC50 [5]: 83 µM
IC50 [6]: 56 µM
percent inhibition, ARK ([7]; 1 ug/mL): 12%
percent inhibition, ARK ([7]; 10 ug/mL): 0%
percent inhibition, ARK ([7]; 25 ug/mL): 8%
percent inhibition, C8161 (Melanoma) ([8]; 10 ug/mL): 33^B percent and 21^B percent
percent inhibition, C8161 (Melanoma) ([8]; 25 ug/mL): 32^B percent and 33^B percent
percent inhibition, MDA-MB-231 (Breast) ([9]; 25 ug/mL): 27^B percent and 42^B percent
percent inhibition, PC-3 ML (Prostrate) ([10]; 1 ug/mL): 21% and 13%
percent inhibition, PC-3 ML (Prostrate) ([10]; 10 ug/mL): 26% and 32^B percent
percent inhibition, PC-3 ML (Prostrate) ([10]; 25 ug/mL): 41^B percent and 30^B percent

SMILES: CN(C)c1cc([N+](=O)[O-])c(O)c2c1CC1CC3C(N(C)C)C(O)=C(C(N)=O)C(=O)C3(O)C(O)=C1C2=O (stereo not drawn) [Compound 4, 7-Dimethylamino-6-demethyl-6-deoxy-9-nitrotetracycline H2SO4]
IC50 [1]: 409 µM
IC50 [2]: 421 µM
IC50 [3]: 219 µM
IC50 [4]: 278 µM
IC50 [5]: 36 µM
IC50 [6]: 61 µM
percent inhibition, C8161 (Melanoma) ([8]; 1 ug/mL): 27^B percent
percent inhibition, C8161 (Melanoma) ([8]; 10 ug/mL): 24^B percent
percent inhibition, C8161 (Melanoma) ([8]; 25 ug/mL): 17%
percent inhibition, MDA-MB-231 (Breast) ([9]; 1 ug/mL): 5%
percent inhibition, MDA-MB-231 (Breast) ([9]; 10 ug/mL): 6%
percent inhibition, MDA-MB-231 (Breast) ([9]; 25 ug/mL): 2%
percent inhibition, PC-3 ML (Prostrate) ([10]; 1 ug/mL): 10%
percent inhibition, PC-3 ML (Prostrate) ([10]; 10 ug/mL): +8%
percent inhibition, PC-3 ML (Prostrate) ([10]; 25 ug/mL): 3%
percent inhibition, RPMI-8226 (Multiple Myeloma) ([11]; 1 ug/mL): +4%
percent inhibition, RPMI-8226 (Multiple Myeloma) ([11]; 10 ug/mL): +5%
percent inhibition, RPMI-8226 (Multiple Myeloma) ([11]; 25 ug/mL): +14%

SMILES: CC(=O)Nc1cc(N(C)C)c2c(c1O)C(=O)C1=C(O)C3(O)C(=O)C(C(N)=O)=C(O)C(N(C)C)C3CC1C2 (stereo not drawn) [Compound 8, 9-Acetamido-7-dimethylamino-6-demethyl-6-deoxytetracycline H2SO4]
IC50 [1]: > 1000 µM
IC50 [2]: 599 µM
IC50 [3]: 232 µM
IC50 [4]: 388 µM
IC50 [5]: > 1000 µM
IC50 [6]: > 1000 µM
percent inhibition, C8161 (Melanoma) ([8]; 1 ug/mL): 13^B percent
percent inhibition, C8161 (Melanoma) ([8]; 10 ug/mL): 41^B percent
percent inhibition, C8161 (Melanoma) ([8]; 25 ug/mL): 40^B percent
percent inhibition, MDA-MB-231 (Breast) ([9]; 1 ug/mL): +10%
percent inhibition, MDA-MB-231 (Breast) ([9]; 10 ug/mL): +5%
percent inhibition, MDA-MB-231 (Breast) ([9]; 25 ug/mL): +13%
percent inhibition, PC-3 ML (Prostrate) ([10]; 1 ug/mL): 0%
percent inhibition, PC-3 ML (Prostrate) ([10]; 10 ug/mL): +4%
percent inhibition, PC-3 ML (Prostrate) ([10]; 25 ug/mL): 0%
percent inhibition, RPMI-8226 (Multiple Myeloma) ([11]; 1 ug/mL): 11%
percent inhibition, RPMI-8226 (Multiple Myeloma) ([11]; 10 ug/mL): 3%
percent inhibition, RPMI-8226 (Multiple Myeloma) ([11]; 25 ug/mL): +2%

SMILES: C[C@H]1c2c(N)ccc(O)c2C(=O)C2=C(O)[C@]3(O)C(=O)C(C(N)=O)=C(O)[C@@H](N(C)C)[C@@H]3[C@@H](O)[C@@H]21.O=S(=O)(O)O [Compound 12, 7-Amino-6-deoxy-5-hydroxytetracycline H2SO4]
IC50 [1]: > 1000 µM
IC50 [2]: > 1000 µM
IC50 [4]: 503 µM
IC50 [5]: 270 µM
IC50 [6]: > 1000 µM
percent inhibition, C8161 (Melanoma) ([8]; 1 ug/mL): +11%
percent inhibition, C8161 (Melanoma) ([8]; 10 ug/mL): +13%
percent inhibition, C8161 (Melanoma) ([8]; 25 ug/mL): +12%

SMILES: CN(C)c1cc(N=[N+]=[N-])c(O)c2c1CC1CC3C(N(C)C)C(O)=C(C(N)=O)C(=O)C3(O)C(O)=C1C2=O (stereo not drawn) [Compound 10, 9-Azido-7-demethylamino-6-demethyl-6-deoxytetracycline H2SO4]
IC50 [1]: 499 µM
IC50 [2]: 484 µM
IC50 [3]: 96 µM
IC50 [4]: > 1000 µM
IC50 [5]: 41 µM
IC50 [6]: 53 µM
percent inhibition, ARK ([7]; 1 ug/mL): 6%
percent inhibition, ARK ([7]; 10 ug/mL): +7%
percent inhibition, ARK ([7]; 25 ug/mL): 1%
percent inhibition, C8161 (Melanoma) ([8]; 10 ug/mL): 22% and 28^B percent
percent inhibition, RPMI-8226 (Multiple Myeloma) ([11]; 1 ug/mL): 3%
percent inhibition, RPMI-8226 (Multiple Myeloma) ([11]; 10 ug/mL): 5%
percent inhibition, RPMI-8226 (Multiple Myeloma) ([11]; 25 ug/mL): 29^B percent
